The structures appear in SMILES notation. Values after ≈ are worked out from the molar mass of the structure shown.

The test system of this experiment is E. coli. The experiment can be described thus: MIC by broth microdilution (CLSI), E. coli. Type of experiment: cell-based. To be noted: Escherichia coli, broth microdilution, cation adjusted Mueller-Hinton Broth, 35° C., 18-24 h; read-out: E. coli MIC. As for the experimental part:
Minimal inhibitory concentrations (MIC) were determined by the broth microdilution method in accordance with the Clinical and Laboratory Standards Institute (CLSI) guidelines. In brief, organism suspensions were adjusted to a 0.5 McFarland standard to yield a final inoculum between 3×10^5 and 7×10^5 colony-forming units (CFU)/mL. Drug dilutions and inocula were made in sterile, cation adjusted Mueller-Hinton Broth (Beckton Dickinson). An inoculum volume of 100 μL was added to wells containing 100 μL of broth with 2-fold serial dilutions of drug. All inoculated microdilution trays were incubated in ambient air at 35° C. for 18-24 h. Following incubation, the lowest concentration of the drug that prevented visible growth (OD600 nm<0.05) was recorded as the MIC. Performance of the assay was monitored by the use of laboratory quality-control strains and levofloxacin, a compound with a defined MIC spectrum, in accordance with CLSI guidelines.
(Broth dilution looks for growth in wells or tubes with falling amounts of substance.)
One may read the MIC as the least concentration at which growth counts as inhibited. Regarding `CC(=O)NCC(Cc1ccc(C#Cc2ccc(CN3CCOCC3)cc2)cc1)c1cc[nH]c(=O)c1O` (stereo not shown) [Compound 1, N-(2-(3-hydroxy-2-oxo-1,2-dihydropyridin-4-yl)-3-(4-((4-(morpholinomethyl)phenyl)ethynyl)phenyl)propyl) acetamide], the MIC is more than 32 µg/mL.
The value for `Cn1ccc(=O)c(O)c1CNc1ccc(C#Cc2ccc(CN3CCOCC3)cc2)cc1` [Compound 2, 3-hydroxy-1-methyl-2-(((4-((4-(morpholinomethyl)phenyl)ethynyl)phenyl)amino)methyl) pyridin-4(1H)-one] was 8 to 32 µg/mL (≈ 18.6 to 74.5 µM); that for `CC(=O)NCC(Cc1ccc(C#Cc2ccc(CN3CCOCC3)cc2)cc1)n1cncc(O)c1=O` (stereo not shown) [Compound 3, N-(2-(5-hydroxy-6-oxopyrimidin-1(6H)-yl)-3-(4-((4-(morpholinomethyl)phenyl)ethynyl)phenyl)propyl) acetamide] was more than 32 µg/mL; that for `CNC(=O)C(Cc1ccc(C#Cc2ccc(CN3CCOCC3)cc2)cc1)n1cncc(O)c1=O` (stereo not shown) [Compound 4, 2-(5-hydroxy-6-oxopyrimidin-1(6H)-yl)-N-methyl-3-(4-((4-(morpholinomethyl)phenyl)ethynyl)phenyl)propanamide] was more than 32 µg/mL.
For `NC(=O)C(Cc1ccc(C#Cc2ccc(CN3CCOCC3)cc2)cc1)n1cncc(O)c1=O` (stereo not shown) [Compound 5, 2-(5-hydroxy-6-oxopyrimidin-1(6H)-yl)-3-(4-((4-(morpholinomethyl)phenyl)ethynyl)phenyl)propanamide], the minimal inhibitory concentration (MIC) is more than 32 µg/mL.
The value for `NC(=O)C(Cc1ccc(C#Cc2ccc(CN3CCOCC3)cc2)cc1)n1cccc(O)c1=O` (stereo not shown) [Compound 6, 2-(3-hydroxy-2-oxopyridin-1(2H)-yl)-3-(4-((4-(morpholinomethyl)phenyl)ethynyl)phenyl)propanamide] was more than 32 µg/mL.
Under `CS(=O)(=O)NCC(Cc1ccc(C#Cc2ccc(CN3CCOCC3)cc2)cc1)n1cncc(O)c1=O` (stereo not shown) [Compound 7, N-(2-(5-hydroxy-6-oxopyrimidin-1(6H)-yl)-3-(4-((4-(morpholinomethyl)phenyl)ethynyl)phenyl)propyl) methanesulfonamide] stands more than 32 µg/mL; under `CNC(=O)C(Cc1ccc(C#Cc2ccc(CN3CCOCC3)cc2)cc1)c1nccc(O)c1O` (stereo not shown) [Compound 12, 2-(3,4-dihydroxypyridin-2-yl)-N-methyl-3-(4-((4-(morpholinomethyl)phenyl)ethynyl)phenyl)propanamide], 8 to 32 µg/mL (≈ 17 to 67.9 µM); under `O=c1[nH]cnc(CCc2ncc(C#Cc3ccc(CN4CCOCC4)cc3)cn2)c1O` [Compound 21, 5-hydroxy-6-(2-(5-((4-(morpholinomethyl)phenyl)ethynyl)pyrimidin-2-yl)ethyl)pyrimidin-4(3H)-one], 1 to 8 µg/mL (≈ 2.4 to 19.2 µM).
The value for `O=c1[nH]cnc(Cn2ccc(C#Cc3ccc(CN4CCOCC4)cc3)cc2=O)c1O` [Compound 44, 5-hydroxy-6-((4-((4-(morpholinomethyl)phenyl)ethynyl)-2-oxopyridin-1(2H)-yl)methyl)pyrimidin-4(3H)-one] was 8 to 32 µg/mL (≈ 19.1 to 76.5 µM); that for `O=C1N(Cc2nc[nH]c(=O)c2O)Cc2cc(C#Cc3ccc(CN4CCOCC4)cc3)cn21` [Compound 81, 2-((5-hydroxy-6-oxo-1,6-dihydropyrimidin-4-yl)methyl)-6-((4-(morpholinomethyl)phenyl)ethynyl)-1,2-dihydro-3H-pyrrolo[1,2-c]imidazol-3-one] was 8 to 32 µg/mL (≈ 18 to 71.8 µM); that for `O=c1[nH]cnc(CS(=O)(=O)c2ccc(C#Cc3ccc(CN4CCOCC4)cc3)cc2)c1O` [Compound 118, 5-hydroxy-6-(((4-((4-(morpholinomethyl)phenyl)ethynyl)phenyl)sulfonyl)methyl) pyrimidin-4(3H)-one] was 8 to 32 µg/mL (≈ 17.2 to 68.7 µM).
As to `O=c1[nH]cnc(C(Cc2ccc(C#Cc3ccc(CN4CCOCC4)cc3)cc2)Cn2cnnn2)c1O` (stereo not shown) [Compound 119, 5-hydroxy-6-(1-(4-((4-(morpholinomethyl)phenyl)ethynyl)phenyl)-3-(1H-tetrazol-1-yl)propan-2-yl)pyrimidin-4(3H)-one], the minimum inhibitory concentration (MIC) was more than 32 µg/mL.
